Reference: article PMC7272640, “Molecular docking, synthesis and biological evaluation of Vascular Endothelial Growth Factor (VEGF) B based peptide as antiangiogenic agent targeting the second domain of the Vascular Endothelial Growth Factor Receptor 1 (VEGFR1D2) for anticancer application” (Signal Transduction and Targeted Therapy, 2020)
Where a SMILES comes first, the peptide text is derived from it.

How the values were obtained:
VEGFR1D2 = test: Microscale thermophoresis (MST) binding of VGB3 to VEGFR1D2
Method: Previously, a tight association between VEGFR1 D2 and VEGF has also been reported (113pM).[4]
The binding affinity of peptide to its cognate receptor was measured by Microscale thermophoresis (MST) on a Nanotemper Monolith NT.115 instrument (Nanotemper Technologies GmbH). Purified VEGFR1D2 was freshly labeled with the Monolith His-Tag RED-tris-NTA labeling dye according to the supplied protocol (Nanotemper Technologies, GmbH). The labeled protein was concentrated using a PES centrifugation filter (3 kDa cutoff; VWR). Measurements were done in MST buffer (50 mM Tris, 250 mM NaCl, pH=7) in standard capillaries (K002; Nanotemper Technologies GmbH). The final concentrations of either labeled protein in the assay were 25 nM. The ligands (VGB3) was titrated in 1:1 dilutions following manufacturer’s recommendations and starting from 0.25 mM. All binding reactions were incubated for 10 min at room temperature followed by centrifugation at 20,000 g before loading into capillaries. All measurements were performed in triplicate using automatically assigned 20% LED and 60% MST power; Laser On-time was 30 sec and Laser Off time was 5 sec.

[1] = test system: human extracellular domains (ECD) of VEGFR1D2; test: ELISA-based displacement assay (VEGF-A/VEGFR-1 interaction); format: binding; details: at 100 μM VGB3; btVEGF165 100 pM; plate coated with VEGFR1D2 ECD 20 ng/well, 5 nM; PBS; peptide 45 min at 37 °C then 2 h with btVEGF-A165; chemiluminescence; triplicate wells
Method: A white flat-bottom high-binding 96-well plate (COSTAR 3922) was coated with human extracellular domains (ECD) of VEGFR1D2 (R&D Systems, Abingdon, UK) in PBS (20 ng/well, 5 nM) overnight at 4 °C. The plate was washed twice with 200 μL of wash buffer (PBS containing 0.1% (v/v) Tween 20) and treated with 200 μL of blocking buffer (PBS containing 3% (w/v) BSA) at 37 °C for 2 h, followed by two washes with wash buffer. Volumes of 50 μL of peptide VGB3 solution at twice the desired final concentration in PBS were added in triplicate wells and the plate was kept at 37 °C for 45 min. A solution of btVEGF-A165 (R & D Systems, Abingdon, UK) at twice the desired final concentration (100 pM) in 50 μL PBS was added. After 2 h incubation, the plate was washed two times with wash buffer. […] Volumes of 100 μL of Supersignal West Pico Chemiluminescent Substrate (Pierce, Rockford, IL, USA) were finally added and the chemiluminescence was quantified with a TECAN spectrophotometer plate-reader. The percentages of displacement were calculated by the following formula: 100×[1 – (S − NS)/(MS – NS)] where S is the signal measured, NS is the nonspecific binding signal defined as the signal measured in the absence of coated receptor on the microplate, and MS is the maximum binding signal obtained with btVEGF-A165 without the peptide VGB3.

[2] = test system: 4T1 mammary carcinoma tumor; test: In vivo antitumor efficacy, 4T1 mammary carcinoma tumor model; parameters: species or system Female BALB/c mice
Method: (§1) Female BALB/c mice (5–7 weeks) were purchased from the Laboratory Animal Center of the Iran Pasteur Institute and maintained under standardized environmental conditions: 12 h light-dark phases, with free access to food and water. For treatment with VGB3, Tumor cells (4T1; 1×10^6 cells/500 μl or 1×10^5 cells/50 μl) were injected subcutaneously into the right flanks of mice (n=3–5). To generate the metastatic model, 4T1 tumor models were sterilized, excised from the breast cancer-bearing BALB/c mice, cut into pieces of <0.3 cm3, and subcutaneously implanted into the animals' right flanks under ketamine (100 mg/kg, i.p.) and xylazine (10 mg/kg, i.p.) anesthesia. Animals carrying tumors of size ~100mm3 were randomized to 6 mice/group (n=6). The treatment groups received 0.02, 0.1, 0.2 or 0.5 mg/kg of VGB3 on alternate days and the control group received PBS i.v. into the mice for 19 days from day 13. The tumor volume was measured every 5 days by a digital Vernier caliper (Mitutoyo, Japan), using the following formula: v=a^2×b×0.52 (where a is the shortest and b is the longest diameter). All studies were performed under the guidelines and with the approval of the Institutional Animal Care and Use Committee (IACUC) of Tehran University of Medical Sciences.

4T1 tumor tissues = test: Immunohistochemistry / TUNEL of excised 4T1 tumors; format: in vivo, Female BALB/c mice; details: VGB3 0.2 mg/kg vs PBS, n = 6
Method: as §1
Excised tumor tissues for immunohistochemical (IHC) analysis were fixed in formalin (4%), embedded in paraffin, sectioned, and stained with hematoxylin-eosin (H&E). IHC was followed by heat-induced epitope retrieval in a buffer at pH 9.0. IHC staining for CD31 and CD34 (to assign MVD), Ki67 (to determine the percentage of Ki67-positive cells), and P53 and Bcl-2 (to determine the fraction of apoptotic cells relative to total cells) was performed on formalin-fixed paraffin-embedded sections. Staining for cell death with TUNEL (terminal deoxynucleotidyl transferase nick-end labeling)) was performed, followed by enzymatic development in diaminobenzidine (DAB) (Invitrogen, Carlsbad, California, USA) detection and counter-staining in hematoxylin. Images were acquired by microscopy (Olympus BX-51, Japan). Numbers of positive cells were determined by analyzing five random tissue samples under scale bars 100 and 20 μm, with quantification using ImageJ.

CC(C)C[C@@H]1NC(=O)CNC(=O)[C@H](CC(=O)O)NC(=O)[C@H](CC(=O)O)NC(=O)[C@@H]2CCCN2C(=O)[C@@H]2CCCN2C(=O)[C@H](CCCNC(=N)N)NC(=O)[C@@H](NC(=O)[C@@H](N)CCC(=O)O)CSSC[C@@H](C(=O)O)NC1=O [VGB3] (HELM PEPTIDE1{E.C.R.P.P.D.D.G.L.C}$PEPTIDE1,PEPTIDE1,2:R3-10:R3$$$V2.0)
Kd (VEGFR1D2; MST, Monolith NT.115, His-Tag RED-tris-NTA labelled VEGFR1D2 25 nM, VGB3 titrated in 1:1 dilutions from 0.25 mM, 50 mM Tris, 250 mM NaCl, pH=7, 10 min at room temperature, triplicate, read-out: dissociation constant (Kd)): 1960 ± 690 nM
binding constant fold lower than Kd of VEGFA to entire extracellular portion of VEGFR1 (VEGFR1D2; VGB3 Kd 1.96 μM vs VEGFA Kd ~50 nM): 40 fold
displacement of btVEGF165 [1]: up to 63%
inhibitory effects on tumor growth and angiogenesis compared with bevacizumab ([2]; VGB3 0.2 mg/kg i.v. once in every 2 days vs reported bevacizumab 2 mg/kg, twice per week): definitely higher
tumor growth inhibition vs PBS control ([2]; i.v., alternate days, 19 days from day 13, n = 6, dose of the statement not specified): Significant inhibition of tumor growth
Bcl-2 expression (4T1 tumor tissues; IHC): decreased
CD31 expression (4T1 tumor tissues; IHC): decreased
CD34 expression (4T1 tumor tissues; IHC): decreased
Ki67 expression (4T1 tumor tissues; IHC): decreased
p53 expression (4T1 tumor tissues; IHC): increased
TUNEL staining (4T1 tumor tissues): increased
